{
  "source": "patent US10968222B2",
  "about": "“2-azabicyclo hexane JAK inhibitor compound” (THERAVANCE BIOPHARMA R&D IP, LLC, priority 2018, dated 2021)",
  "key": {"[1]": {"target": "T1, JAK2 (Homo sapiens, UniProt O60674)", "T1 construct": "GST; purchased Life Technologies", "T1 sequence (O60674 whole entry)": "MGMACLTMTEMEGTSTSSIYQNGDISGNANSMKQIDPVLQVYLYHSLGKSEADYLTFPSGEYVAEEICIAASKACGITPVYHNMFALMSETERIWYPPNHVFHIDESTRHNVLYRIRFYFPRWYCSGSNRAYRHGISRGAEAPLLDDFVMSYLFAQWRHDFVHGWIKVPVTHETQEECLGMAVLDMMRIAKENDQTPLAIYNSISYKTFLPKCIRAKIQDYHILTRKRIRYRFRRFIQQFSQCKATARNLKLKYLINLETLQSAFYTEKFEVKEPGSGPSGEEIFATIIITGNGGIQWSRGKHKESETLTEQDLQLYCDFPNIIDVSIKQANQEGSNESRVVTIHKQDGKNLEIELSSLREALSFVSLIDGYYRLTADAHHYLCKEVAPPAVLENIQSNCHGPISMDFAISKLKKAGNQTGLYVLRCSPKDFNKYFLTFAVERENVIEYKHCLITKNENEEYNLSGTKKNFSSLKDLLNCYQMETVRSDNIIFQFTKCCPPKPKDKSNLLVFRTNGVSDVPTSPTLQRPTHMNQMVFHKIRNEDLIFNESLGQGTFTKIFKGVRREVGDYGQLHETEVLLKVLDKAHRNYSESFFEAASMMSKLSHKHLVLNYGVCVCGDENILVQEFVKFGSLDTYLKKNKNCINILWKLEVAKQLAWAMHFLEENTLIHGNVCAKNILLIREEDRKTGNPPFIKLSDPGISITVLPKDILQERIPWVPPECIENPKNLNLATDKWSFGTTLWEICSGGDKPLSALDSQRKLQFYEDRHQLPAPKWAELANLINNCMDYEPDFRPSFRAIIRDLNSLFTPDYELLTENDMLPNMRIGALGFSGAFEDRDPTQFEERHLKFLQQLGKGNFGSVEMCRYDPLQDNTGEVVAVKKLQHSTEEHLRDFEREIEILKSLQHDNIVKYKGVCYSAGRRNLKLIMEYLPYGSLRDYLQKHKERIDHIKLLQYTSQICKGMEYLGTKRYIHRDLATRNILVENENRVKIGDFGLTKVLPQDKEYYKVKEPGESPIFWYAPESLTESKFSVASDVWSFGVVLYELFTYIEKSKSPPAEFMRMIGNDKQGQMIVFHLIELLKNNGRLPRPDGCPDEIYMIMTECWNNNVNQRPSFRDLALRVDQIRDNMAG", "assay": "Biochemical JAK kinase assay (LanthaScreen), JAK2", "conditions": "converted from pIC50 by Cheng-Prusoff; 3 μM ATP; read-out: JAK 2 pKi (converted)", "protocol": "A panel of four LanthaScreen JAK biochemical assays (JAK1, 2, 3 and Tyk2) were carried in a common kinase reaction buffer (50 mM HEPES, pH 7.5, 0.01% Brij-35, 10 mM MgCl2, and 1 mM EGTA). Recombinant GST-tagged JAK enzymes and a GFP-tagged STAT1 peptide substrate were obtained from Life Technologies.\nSerially diluted compound was pre-incubated with each of the four JAK enzymes and the substrate in white 384-well microplates (Corning) at ambient temperature for 1 h. ATP was subsequently added to initiate the kinase reactions in 10 μL total volume, with 1% DMSO. […] The plates were allowed to incubate at ambient temperature for 1 h before being read on the EnVision reader (Perkin Elmer). Emission ratio signals (520 nm/495 nm) were recorded and utilized to calculate the percent inhibition values based on DMSO and background controls.\nFor dose-response analysis, percent inhibition data were plotted vs. compound concentrations, and IC50 values were determined from a 4-parameter robust fit model with the Prism software (GraphPad Software). Results were expressed as pIC50 (negative logarithm of IC50) and subsequently converted to pKi (negative logarithm of dissociation constant, Ki) using the Cheng-Prusoff equation."}, "[2]": {"target": "T2, EPHB6 (Homo sapiens, UniProt O15197)", "T2 construct": "made in house; host or cells: E. coli BL21-derived host (T7 phage) or HEK-293 cells", "T2 sequence (O15197 32-1021)": "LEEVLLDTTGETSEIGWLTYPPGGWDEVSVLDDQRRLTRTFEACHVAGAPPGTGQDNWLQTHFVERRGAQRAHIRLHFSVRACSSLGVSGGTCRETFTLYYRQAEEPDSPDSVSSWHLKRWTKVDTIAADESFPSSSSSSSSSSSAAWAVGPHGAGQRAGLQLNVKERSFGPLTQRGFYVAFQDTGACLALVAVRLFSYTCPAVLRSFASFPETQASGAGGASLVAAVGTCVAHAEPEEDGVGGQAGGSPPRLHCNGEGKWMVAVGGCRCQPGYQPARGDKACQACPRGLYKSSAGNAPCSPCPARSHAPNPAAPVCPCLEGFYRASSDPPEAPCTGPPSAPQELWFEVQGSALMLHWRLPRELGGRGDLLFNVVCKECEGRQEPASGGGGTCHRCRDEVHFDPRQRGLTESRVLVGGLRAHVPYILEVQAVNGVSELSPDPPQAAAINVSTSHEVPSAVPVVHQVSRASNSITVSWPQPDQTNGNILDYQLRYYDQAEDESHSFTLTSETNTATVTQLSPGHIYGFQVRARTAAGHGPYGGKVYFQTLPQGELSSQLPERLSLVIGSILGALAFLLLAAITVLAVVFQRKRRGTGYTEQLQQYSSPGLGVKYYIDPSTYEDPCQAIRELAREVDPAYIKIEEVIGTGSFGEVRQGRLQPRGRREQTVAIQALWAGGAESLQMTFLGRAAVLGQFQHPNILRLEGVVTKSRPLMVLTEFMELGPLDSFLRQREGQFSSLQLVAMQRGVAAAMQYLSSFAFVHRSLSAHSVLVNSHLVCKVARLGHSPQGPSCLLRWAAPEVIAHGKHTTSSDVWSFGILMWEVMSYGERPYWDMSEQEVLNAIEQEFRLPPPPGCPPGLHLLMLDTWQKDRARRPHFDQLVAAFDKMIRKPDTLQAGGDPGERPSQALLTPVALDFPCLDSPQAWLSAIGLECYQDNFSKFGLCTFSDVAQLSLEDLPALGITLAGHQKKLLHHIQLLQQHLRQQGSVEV", "assay": "Kinome screen, EPHB6", "assay_type": "binding", "conditions": "screened at 1 μM", "protocol": "(§1) Compounds 1 and C-1 were screened against other kinases to evaluate their selectivity profile.\n(§2) Kinase-tagged T7 phage strains were grown in parallel in 24-well blocks in an E. coli host derived from the BL21 strain. E. coli were grown to log-phase and infected with T7 phage from a frozen stock (multiplicity of infection=0.4) and incubated with shaking at 32° C. until lysis (90-150 minutes). The lysates were centrifuged (6,000×g) and filtered (0.2 μm) to remove cell debris. The remaining kinases were produced in HEK-293 cells and subsequently tagged with DNA for qPCR detection.\n(§3) Streptavidin-coated magnetic beads were treated with biotinylated small molecule ligands for 30 minutes at room temperature to generate affinity resins for kinase assays. The liganded beads were blocked with excess biotin and washed with blocking buffer (SeaBlock (Pierce), 1% BSA, 0.05% Tween 20, 1 mM DTT) to remove unbound ligand and to reduce non-specific phage binding. Binding reactions were assembled by combining kinases, liganded affinity beads, and test compounds in 1× binding buffer (20% SeaBlock, 0.17×PBS, 0.05% Tween 20, 6 mM DTT). Test compounds were prepared as 40× stocks in 100% DMSO and directly diluted into the assay. All reactions were performed in polypropylene 384-well plates in a final volume of 0.04 ml. […] The kinase concentration in the eluates was measured by qPCR. […]"}, "[3]": {"tested_on": "IL-2 stimulated STAT5 phosphorylation in Tall-1 human T cell line", "assay": "Inhibition of IL-2 stimulated pSTAT5 in Tall-1 T cells", "assay_type": "cell-based", "conditions": "AlphaLisa, read-out: pIC50, inhibition of IL-2 stimulated pSTAT5 (converted)", "protocol": "The potency of test compounds for inhibition of interleukin-2 (IL-2) stimulated STAT5 phosphorylation was measured in the Tall-1 human T cell line (DSMZ) using AlphaLisa. Because IL-2 signals through JAK1/3, this assay provides a measure of JAK1/3 cellular potency.\nPhosphorylated STAT5 was measured via the AlphaLISA SureFire Ultra pSTAT5 (Tyr694/699) kit (PerkinElmer). Human T cells from the Tall-1 cell line were cultured in a 37° C., 5% CO2 humidified incubator in RPMI (Life Technologies) supplemented with 15% Heat Inactivated Fetal Bovine Serum (FBS, Life Technologies), 2 mM Glutamax (Life Technologies), 25 mM HEPES (Life Technologies) and 1× Pen/Strep (Life Technologies). Compounds were serially diluted in DMSO and dispensed acoustically to empty wells. […] Phosphorylated STAT5 was measured via the pSTAT5 AlphaLisa kit (PerkinElmer). […] Luminescence was measured with excitation at 689 nm and emission at 570 nm using an EnVision plate r reader (PerkinElmer) under green filtered <100 lux light.\nTo determine the inhibitory potency of test compounds in response to IL-2, the average emission intensity of beads bound to pSTAT5 was measured in a human T cell line. IC50 values were determined from analysis of the inhibition curves of signal intensity versus compound concentration. Data are expressed as pIC50 (negative decadic logarithm IC50) values (mean±standard deviation)."}, "[4]": {"target": "T3, VEGFR2 (Homo sapiens, UniProt P35968)", "T3 construct": "made in house; host or cells: E. coli BL21-derived host (T7 phage) or HEK-293 cells", "T3 sequence (P35968 20-1356)": "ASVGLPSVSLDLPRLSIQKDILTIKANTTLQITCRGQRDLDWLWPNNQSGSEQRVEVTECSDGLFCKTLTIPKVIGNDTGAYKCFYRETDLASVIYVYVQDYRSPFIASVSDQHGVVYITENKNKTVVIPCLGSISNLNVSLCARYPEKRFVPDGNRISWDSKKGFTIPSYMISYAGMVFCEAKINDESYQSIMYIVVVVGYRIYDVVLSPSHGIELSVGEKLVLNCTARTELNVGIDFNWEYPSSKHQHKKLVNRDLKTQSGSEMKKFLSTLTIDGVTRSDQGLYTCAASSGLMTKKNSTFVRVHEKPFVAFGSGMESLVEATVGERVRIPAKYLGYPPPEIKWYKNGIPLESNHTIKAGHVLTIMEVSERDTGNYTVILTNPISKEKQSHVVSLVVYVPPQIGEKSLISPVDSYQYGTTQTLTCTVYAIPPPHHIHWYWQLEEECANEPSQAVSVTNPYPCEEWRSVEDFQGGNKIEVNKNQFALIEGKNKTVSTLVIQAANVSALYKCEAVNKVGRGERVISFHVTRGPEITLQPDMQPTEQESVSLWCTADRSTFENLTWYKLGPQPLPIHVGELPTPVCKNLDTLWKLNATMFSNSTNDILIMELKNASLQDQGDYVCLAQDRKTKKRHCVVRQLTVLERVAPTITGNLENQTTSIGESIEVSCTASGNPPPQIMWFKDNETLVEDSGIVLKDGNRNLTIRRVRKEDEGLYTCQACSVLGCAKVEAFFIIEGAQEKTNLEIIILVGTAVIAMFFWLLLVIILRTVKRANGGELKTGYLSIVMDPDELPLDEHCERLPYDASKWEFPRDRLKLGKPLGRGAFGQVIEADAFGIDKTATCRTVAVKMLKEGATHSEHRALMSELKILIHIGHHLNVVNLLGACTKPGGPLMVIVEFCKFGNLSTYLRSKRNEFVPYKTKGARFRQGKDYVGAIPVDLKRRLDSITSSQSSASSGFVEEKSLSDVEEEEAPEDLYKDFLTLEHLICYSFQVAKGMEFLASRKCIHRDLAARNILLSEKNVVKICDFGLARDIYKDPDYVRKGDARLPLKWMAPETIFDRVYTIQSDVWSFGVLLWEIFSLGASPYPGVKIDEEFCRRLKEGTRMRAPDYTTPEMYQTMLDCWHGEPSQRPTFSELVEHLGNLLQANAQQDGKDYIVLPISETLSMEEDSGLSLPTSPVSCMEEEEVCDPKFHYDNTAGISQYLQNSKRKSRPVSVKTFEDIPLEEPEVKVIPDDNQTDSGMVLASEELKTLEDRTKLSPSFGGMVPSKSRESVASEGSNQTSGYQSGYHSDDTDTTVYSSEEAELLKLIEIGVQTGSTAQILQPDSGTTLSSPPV", "assay": "Kinome screen, VEGFR2", "assay_type": "binding", "conditions": "screened at 1 μM", "protocol": "as §1, §2, §3"}},
  "data": [
    {"smiles": "CCc1cc(O)c(F)cc1-c1cc(F)c2c(-c3nc4c([nH]3)CCN(C(=O)[C@]35C[C@H]3CCN5)C4)n[nH]c2c1", "note": "[Compound 1, (1S,5R)-2-azabicyclo[3.1.0]hexan-1-yl(2-(6-(2-ethyl-5-fluoro-4-hydroxyphenyl)-4-fluoro-1H-indazol-3-yl)-6,7-dihydro-3H-imidazo[4,5-c]pyridin-5(4H)-yl)methanone]", "values": [
      {"measurement": "Ki", "setting": "[1]", "result": 0.0631, "unit": "nM"},
      {"measurement": "inhibition at 1 µM", "setting": "[2]", "result": 85, "unit": "%"},
      {"measurement": "IC50", "setting": "[3]", "result": 15.8, "unit": "nM"},
      {"measurement": "inhibition at 1 µM", "setting": "[4]", "result": 47, "unit": "%"}
    ]}
  ]
}
